According to patent US20240060146A1, “CHEMICAL SUBSTANCE EVALUATION SYSTEM USING MULTICOLOR LIGHT-EMITTING CELLS” (TOHOKU UNIVERSITY, priority 2020, published 2024):
Counter-ions that a name gives are not always drawn.

Legend:
Format in all cases: cell-based
2H4 cells [1] = assay: IL-2 Luc LTT: evaluation of chemical substance in 2H4 cells; conditions: for IL-2 Luc LTT: 1 h chemical, then 25 nM PMA and 1 μM ionomycin 24 h, class from Min % suppression (nIL2LA) and Min Inh-GAPLA
Description: (§1) 2H4 cells were established from Jurkat cells according to the method described in PTL 1. First, for the preparation of 2H4 cells, a plasmid having SLG introduced downstream of the IL-2 promoter, a plasmid having SLR introduced downstream of the G3PDH promoter, and a plasmid having SLO introduced downstream of the INF-γ promoter were prepared as internal standards. These plasmids contained a resistance gene for hygromycin B, puromycin, and neomycin downstream of SLG, SLR, and SLO, respectively. The conditions for drug selection after transfection of the host Jurkat cells were as follows: in the primary selection, the cells were cultured for 1 week in the presence of a drug. In the secondary selection culture, the cells that survived in the primary selection culture were seeded in a 96-well plate at 1 cell/well or 200 cells/well, and cultured for 2 weeks under the same drug conditions. After the secondary selection culture, the cells were subjected to clone selection from the two points of signal intensity and signal induction by drug treatment. The G3PDH promoter SLR was first introduced to establish monochromatic stable cell line Jurkat: G3PDH-SLR #14D1 cells. These cells were used as the parent cell line to introduce the INF-γ promoter SLO, thereby establishing bichromatic stable cell line Jurkat: INFγ-SLO/G3PDH-SLR #2B12 cells. Subsequently, the obtained cells were used as a parent cell line to introduce the IL-2 promoter SLG, thereby establishing trichromatic stable cell line Jurkat IL-2-SLG/INFγ-SLO/G3PDH-SLR #2H4 cells.
The chemical substances listed in Table 1 were evaluated using 2H4 cells. 2H4 cells were seeded in a 96-well plate at 1×10^4/well and treated with each chemical substance for 1 hour, followed by incubating the cells with 25 nM PMA and 1 μM ionomycin for 24 hours. After 24 hours from the treatment with PMA and ionomycin, Tripluck Assay Reagent (manufactured by Toyobo Co., Ltd.) was added, and the amount of luminescence was measured with a Phelios microplate luminometer (manufactured by Atto Corporation). For control, 2H4 cells untreated with a chemical substance were also examined in the same manner. The amount of luminescence of SLG luciferase activity (IL2LA), SLR luciferase activity (GAPLA), and SLO luciferase activity (IFNLA) was measured, and IL-2LA and IFNLA were each normalized by GAPLA and determined to be nIL2LA and nIFNLA, respectively. Thereafter, for the concentration of each chemical substance, “% suppression” and “Inh-GAPLA” were determined according to the following formulas (1) and (2), and the chemical substances were evaluated by using their minimum value (Min % suppression, Min Inh-GAPLA).
In the evaluation, for control, PMA/ionomycin-treated 2H4 cells and PMA/ionomycin-untreated 2H4 cells were also measured for nIL2LA.
(§2) % suppression={(nIL2LA in 2H4 cells untreated with a chemical substance)−(nIL2LA in 2H4 cells treated with a chemical substance)}×100/(nIL2LA in 2H4 cells untreated with a chemical substance) ---(1) Inh-GAPLA=(GAPLA in 2H4 cells treated with a chemical substance)/(GAPLA in 2H4 cells untreated with a chemical substance) ---(2)

2H4 cells [2] = assay: IL-2 Luc assay: evaluation of chemical substance in 2H4 cells; conditions: for IL-2 Luc Assay: 1 h chemical, then PMA/ionomycin, luminescence after six hours, class from Min % suppression of nIL2LA
Description: as §1, §2
The chemical substances listed in Table 1 were evaluated using 2H4 cells. 2H4 cells were seeded in a 96-well plate at 2×10^5 cells/50 μl/well and treated with each chemical substance for 1 hour, followed by incubating the cells with 25 nM PMA and 1 µM ionomycin […]. After six hours from the treatment with PMA and ionomycin, Tripluc: Assay Reagent (manufactured by Toyobo Co., Ltd.) was added, and the amount of luminescence was measured with a Phelios microplate luminometer (manufactured by Atto Corporation). For control, 2H4 cells untreated with a chemical substance were also examined in the same manner. The amount of luminescence of SLG luciferase activity (IL2LA), SLR luciferase activity (GAPLA), and SLO luciferase activity (IFNLA) was measured, and IL-2LA and IFNLA were each normalized by GAPLA and determined to be nIL2LA and nIFNLA, respectively. Thereafter, for the concentration of each chemical substance, the value of suppression was calculated according to formula (1) above, and the chemical substances were evaluated by using their minimum value (Min suppression).

2H4 cells [3] = assay: Evaluation of combination of IL-2 Luc LTT and IL-2 Luc assay; parameters: key: Positive (Pos): If the result is either LCT in the IL-2 Luc LTT or S in the IL-2 Luc assay, or both, the chemical substance is determined to be an immunosuppressive substance.; Negative (Neg): In the case other than the above, the chemical substance is determined to be a non-immunosuppressive substance; conditions: LCT in IL-2 Luc LTT or S in IL-2 Luc assay = Pos
Description: Positive (Pos): If the result is either LCT in the IL-2 Luc LTT or S in the IL-2 Luc assay, or both, the chemical substance is determined to be an immunosuppressive substance. Negative (Neg): In the case other than the above, the chemical substance is determined to be a non-immunosuppressive substance.

SMILES	IL-2 Luc LTT (2H4 cells [1])	IL-2 Luc Assay (2H4 cells [2])	Evaluation of Combination (2H4 cells [3])	determination in IL-2 Luc LTT (in words) (2H4 cells [1])	determination by the IL-2 Luc assay alone (in words) (2H4 cells [2])
O=c1[nH]cc(F)c(=O)[nH]1 [5-Fluorouracil]	LCT (Min % suppression ≤−35 and Min Inh-GAPLA <0.7: Leukocyte toxic (denoted as “LCT”; determined to have cell growth inhibition action and/or metabolic activity inhibition action))	N (−35<Min % suppression <35: No Effect (denoted as “N”; determined to not affect immunity))	Pos	–	–
O=NN(CCCl)C(=O)NCCCl [Carmustine]	NLCT	S (Min %; suppression ≥35: Suppression (denoted as “S”; determined to have immunosuppressive action))	Pos	–	–
CN(C)c1ccc(O)c2c1C[C@H]1C[C@H]3[C@H](N(C)C)C(O)=C(C(N)=O)C(=O)[C@@]3(O)C(O)=C1C2=O [Minocycline (MC), Minocycline]	NLCT	S (Min %; suppression ≥35: Suppression (denoted as “S”; determined to have immunosuppressive action))	Pos	–	–
CN(Cc1cnc2nc(N)nc(N)c2n1)c1ccc(C(=O)N[C@@H](CCC(=O)O)C(=O)O)cc1 [Methotrexate (MTX), Methotrexate]	NLCT	N (−35<Min % suppression <35: No Effect (denoted as “N”; determined to not affect immunity))	Neg	–	–
COc1c(C)c2c(c(O)c1C/C=C(\C)CCC(=O)O)C(=O)OC2 [Mycophenolic acid (MPA), Mycophenolic acid]	LCT (Min % suppression ≤−35 and Min Inh-GAPLA <0.7: Leukocyte toxic (denoted as “LCT”; determined to have cell growth inhibition action and/or metabolic activity inhibition action))	A (Min suppression ≤−35: Augmentation (denoted as “A”; determined to have immunoaugmenting action))	Pos	inhibit cell growth and/or metabolic activity	determined to not have imnunosuppressive action
COc1cccc2c1C(=O)c1c(O)c3c(c(O)c1C2=O)C[C@@](O)(C(=O)CO)C[C@@H]3O[C@H]1C[C@H](N)[C@H](O)[C@H](C)O1 [Doxorubicin hydrochloride]	LCT (Min % suppression ≤−35 and Min Inh-GAPLA <0.7: Leukocyte toxic (denoted as “LCT”; determined to have cell growth inhibition action and/or metabolic activity inhibition action))	S (Min %; suppression ≥35: Suppression (denoted as “S”; determined to have immunosuppressive action))	Pos	–	–
CC(=O)CC(c1ccccc1)c1c(O)c2ccccc2oc1=O (centres unmarked) [Warfarin]	NLCT	N (−35<Min % suppression <35: No Effect (denoted as “N”; determined to not affect immunity))	Neg	–	–
O=C([O-])[O-].[Li+].[Li+] [Lithium carbonate]	I (−35<Min % suppression <35 and 0.7≤Min Inh-GAPLA: Inconclusive (denoted as “I”; possibly not measurable due to low water solubility))	N (−35<Min % suppression <35: No Effect (denoted as “N”; determined to not affect immunity))	Neg	–	–
C[C@H]1O[C@@H](O[C@H]2[C@@H](O)C[C@H](O[C@H]3[C@@H](O)C[C@H](O[C@H]4CC[C@@]5(C)[C@H](CC[C@@H]6[C@@H]5C[C@@H](O)[C@]5(C)[C@@H](C7=CC(=O)OC7)CC[C@]65O)C4)O[C@@H]3C)O[C@@H]2C)C[C@H](O)[C@@H]1O [Digoxin]	NLCT	S (Min %; suppression ≥35: Suppression (denoted as “S”; determined to have immunosuppressive action))	Pos	–	–
NNC(=O)c1ccncc1 [Isoniazid]	I (−35<Min % suppression <35 and 0.7≤Min Inh-GAPLA: Inconclusive (denoted as “I”; possibly not measurable due to low water solubility))	N (−35<Min % suppression <35: No Effect (denoted as “N”; determined to not affect immunity))	Neg	–	–
CN(C)CCOC(c1ccccc1)c1ccccc1 [Diphenhydramine]	NLCT	S (Min %; suppression ≥35: Suppression (denoted as “S”; determined to have immunosuppressive action))	Pos	–	–
Cc1oncc1C(=O)Nc1ccc(C(F)(F)F)cc1 [Leflunomide]	NLCT	S (Min %; suppression ≥35: Suppression (denoted as “S”; determined to have immunosuppressive action))	Pos	–	–
COc1cc([C@@H]2c3cc4c(cc3[C@@H](O[C@@H]3O[C@@H]5CO[C@@H](c6cccs6)O[C@H]5[C@H](O)[C@H]3O)[C@H]3COC(=O)[C@H]23)OCO4)cc(OC)c1O [Teniposide]	LCT (Min % suppression ≤−35 and Min Inh-GAPLA <0.7: Leukocyte toxic (denoted as “LCT”; determined to have cell growth inhibition action and/or metabolic activity inhibition action))	N (−35<Min % suppression <35: No Effect (denoted as “N”; determined to not affect immunity))	Pos	–	–
